Source: patent US6624185B2, “Diarylcycloalkyl derivatives, processes for their preparation and their use as pharmaceuticals” (Aventis Pharma Deutschland GmbH, priority 2001, dated 2003)

Biological target: T1, human PPARα (Homo sapiens, UniProt Q07869)
T1 construct: expressed in transfected cells; host or cells: HEK (human embryo kidney) cells, stably transfected
T1 sequence (Q07869 1-468): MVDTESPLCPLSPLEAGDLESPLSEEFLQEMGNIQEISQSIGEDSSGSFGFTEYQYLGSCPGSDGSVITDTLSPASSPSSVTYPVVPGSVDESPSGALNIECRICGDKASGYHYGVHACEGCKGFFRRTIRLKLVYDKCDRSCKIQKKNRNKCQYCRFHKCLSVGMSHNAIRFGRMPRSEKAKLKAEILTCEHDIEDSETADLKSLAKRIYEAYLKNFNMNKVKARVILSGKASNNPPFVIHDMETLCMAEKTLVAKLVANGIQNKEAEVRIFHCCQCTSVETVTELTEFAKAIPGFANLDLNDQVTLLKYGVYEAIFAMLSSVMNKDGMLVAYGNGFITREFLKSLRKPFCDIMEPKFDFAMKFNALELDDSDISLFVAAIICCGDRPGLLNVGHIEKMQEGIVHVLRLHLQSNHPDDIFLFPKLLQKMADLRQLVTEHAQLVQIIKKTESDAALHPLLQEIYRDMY
Experiment: PPARα reporter cell line assay (stably transfected HEK cells, luciferase readout, three-day test)
Format: cell-based
Conditions: agonist activity in stably transfected HEK PPARα reporter cell line, 24 h incubation, luciferase luminescence
Description: To analyze the effectiveness of substances which bind to human PPARα, activating it in agonistic manner, a stable transfected HEK cell line (HEK=human embryo kidney) designated here as “PPARα reporter cell line” is used.
The activity of PPARα agonists is determined in a three-day test, described below:
The PPARα reporter cell line is cultivated up to 80% confluence in DMEM medium (#41965-039, Life Technologies) with the following additives: 10% cs-FCS (fetal calf serum, #SH-30068.03, Hyclone), antibiotics (0.5 mg/ml of zeozin [#R250-01, Invitrogen], 0.5 mg/ml of G418 [#10131-019, Life Technologies], 1% penicillin streptomycin solution [#15140-031, Life Technologies]) and 2 mM of L-glutamine (#25030-032, Life Technologies). Cultivation is carried out in standard cell culture bottles (#33111, Becton Dickinson) in a cell culture incubator at 37° C. and 5% CO2. The 80% confluent cells are washed once with 30 ml of PBS (#141-090- 094, Life Technologies), treated with 2 ml of trypsin solution (#25300-054, Life Technologies) at 37° C. for 2 min, taken up in 5 ml of the medium described above and counted in a cell counter. After dilution to 500,000 cells/ml, in each case 100,000 cells are sown into each well of a 96-well microtiter plate having a clear plastic bottom (#3610, Corning Costar). The plates are incubated in a cell incubator at 37° C. and 5% CO2 for 24 h.
The PPARα agonists to be tested are dissolved in DMSO at a concentration of 10 mM. This stock solution is diluted in Phenol-Red-free DMEM medium (#21063-029, Life Technologies) to which 5% of cs-FCS (#SH-30068.03, Hyclone), 2 mM of L-glutamine (#25030-032, Life Technologies) and the antibiotics described above (zeozin, G418, penicillin and streptomycin) had been added.
Test substances are usually tested at 11 different concentrations (10 μM; 3.3 μM; 1 μM; 0.33 μM; 0,1 μM; 0.033 μM; 0.01 μM; 0.0033 μM; 0.001 μM; 0.00033 μM and 0.0001 μM). […] From each well, the medium of the PPARα reporter cell line sown on day 1 is completely removed by aspiration, and immediately, the test substances diluted in medium are added to the cells. Dilution and addition of the substances can be carried out using a robot (Beckman Biomek 2000). The end volume of the test substances diluted in medium is 100 μl per well of a 96-well plate. The DMSO concentration in the assay is always below 0.1% v/v to prevent cytotoxic effects of the solvent.
The test plates are incubated in an incubator at 37° C. and 5% CO2 for 24 h.
The PPARα receptor cells treated with the test substances are removed from the incubator and frozen at −20° C. for 1 h to improve cell lysis. After the plates have thawed (thawing at room temperature for at least 30 min), 50 μl of buffer 1 (Luc-Screen kit #LS1000, PE Biosystems Tropix) are pipetted into each well and the plates are then transferred into an apparatus for measuring luminescence, fitted with a pipetting unit (Luminoscan Ascent, LabSystems). The luciferase reaction in the measurement apparatus is started by pipetting 50 μl of buffer 2 (Luc-Screen kit #LS1000, PE Biosystems Tropix) into each well of the 96-well plate. Addition of buffer to the individual wells is carried out in defined and identical time intervals following the instructions of the manufacturer (LabSystems). All samples are measured exactly 16 min after addition of buffer 2. Measurement time is 10 sec per sample.
The crude data of the apparatus for measuring luminescence are exported into a Microsoft Excel file. Dose-activity curves and EC50 values are calculated using the program XL.Fit according to the instructions of the manufacturer (IDBS).

Compound	EC50 [nM]
2-{3-[2-(4-Fluorophenyl)oxazola4-ylmethoxy]cyclohexyloxy}-6-methylbenzoic Acid [Example I]	1
Cc1cccc(CC[C@H]2CCC[C@H](OCc3coc(-c4ccc(F)cc4)n3)C2)c1C(=O)O (racemic) [XXIX, Rac-trans-2-(2-{3-[2-(4-Fluorophenyl)oxazol4-ylmethoxy]cyclohexyl}ethyl)-6-methylbenzoic Acid]	32
Cc1cccc(COC[C@H]2CCC[C@@H](OCc3coc(-c4ccc(F)cc4)n3)C2)c1C(=O)O (racemic) [XXV, Rac-cis-2-{3-[2-(4-Fluorophenyl)oxazol4-ylmethoxy]cyclohexylmethoxymethyl}-6-methylbenzoic Acid]	13
Cc1cccc(CC[C@@H]2CCC[C@H](OCc3coc(-c4ccc(F)cc4)n3)C2)c1C(=O)O (racemic) [XXVIII, Rac-cis-2-(2-{3-[2-(4-Fluorophenyl)oxazol-4-ylmethoxy]cyclohexyl}ethyl)-6-methylbenzoic Acid]	14
Cc1ccccc1-c1nc(COC2CCCC(OCc3cccc(C)c3C(=O)O)C2)c(C)o1 (centres unmarked) [XLI, 2-{3-[2-(2-Methylphenyl)-5-methyloxazol-4-ylmethoxy]cyclohexyloxymethyl}-6-methylbenzoic Acid]	0.6
COc1ccc(-c2nc(COC3CCCC(OCc4cccc(C)c4C(=O)O)C3)c(C)o2)cc1OC (centres unmarked) [XLIII, 2-{3-[2-(3,4-Dimethoxyphenyl)-5-methyloxazol-4-ylmethoxy]cyclohexyloxymethyl}-6-methylbenzoic Acid]	0.58
Cc1cccc(COC2CCCC(OCc3nc(-c4cccc(C#N)c4)oc3C)C2)c1C(=O)O (centres unmarked) [XLIV, 2-{3-[2-(3-Cyanophenyl)-5-methyloxazol-4-ylmethoxy]cyclohexyloxymethyl}-6-methylbenzoic Acid]	0.93
Cc1cccc(COC2CCCC(OCc3nc(-c4cccc(Br)c4)oc3C)C2)c1C(=O)O (centres unmarked) [XXXII]	0.97
COc1cccc(-c2nc(COC3CCCC(OCc4cccc(C)c4C(=O)O)C3)c(C)o2)c1 (centres unmarked) [XXXIV, 2-{3-[2-(3-Methoxyphenyl)-5-methyloxazol4-ylmethoxy]cyclohexyloxymethyl}-6-methylbenzoic Acid]	0.82
Cc1cccc(COC2CCCC(OCc3nc(-c4cccc(Cl)c4)oc3C)C2)c1C(=O)O (centres unmarked) [XXXVI, 2-{3-[2-(3-Chlorophenyl)-5-methyloxazol4-ylmethoxy]cyclohexyloxymethyl}-6-methylbenzoic Acid]	0.62
Cc1cccc(-c2nc(COC3CCCC(OCc4cccc(C)c4C(=O)O)C3)c(C)o2)c1 (centres unmarked) [XXXVIII, 2-{3-[2-(3-Methylphenyl)-5-methyloxazol-4-ylmethoxy]cyclohexyloxymethyl}-6-methylbenzoic Acid]	0.57
